Experimental data published in patent US7939558B2, “Compounds having activity in increasing ion transport by mutant-CFTR and uses thereof” (The Regents of the University of California, priority 2004, dated 2011).
pEC50: −log10 of the molar value.

Assays:
ΔF508-CFTR [1] = target: T1, ΔF508-CFTR (Homo sapiens, UniProt P13569, DEL508-508); assay: Cell-attached patch-clamp of ΔF508-CFTR channel activity in FRT cells; assay type: cell-based; set-up: expressed in transfected cells; settings: 100 nM, forskolin 20 μM
Procedure: Experiments were performed in the cell-attached configuration of the patch-clamp technique on FRT cells expressing ΔF508-CFTR. Cells were seeded at a density of 10^4 cells/well and grown at 37° C. for 24-48 hours and then incubated for 24-48 hours at 27° C. to allow trafficking of the ΔF508 protein to the plasma membrane. Borosilicate glass pipettes were fire polished to obtain tip resistances of 2-4 MQ. Currents were sampled at 500 Hz using a patch-clamp amplifier (EPC-7, List, Darmstadt) and low-pass filtered using a 4-pole Bessel filter set at a cutoff frequency of 250 Hz and digitized at 500 Hz using an ITC-16 data translation interface (Instrutech). The extracellular (bath) solution contained (in mM): 150 NaCl, 1 CaCl2, 1 MgCl2, 10 glucose, 10 mannitol, and 10 TES (pH 7.4). The pipette solution contained (in mM): 120 CsCl, 1 MgCl2, 10 TEA-Cl, 0.5 EGTA, 1 Mg-ATP, and 10 Hepes (pH 7.3). Membrane conductances were monitored by alternating the membrane potential between +80 and −100 mV. Current-voltage relationships were generated by applying voltage pulses between −100 and +100 mV in 20 mV steps. Analysis of open channel probability (Po), mean channel open time (To), and mean channel closed time (Tc) was done using recordings of at least three minute intervals (Taddei et al., FEBS Lett. 558:52-56 (2004)). […]

ΔF508-CFTR [2] = target: T1, ΔF508-CFTR; assay: Short-circuit (apical membrane Cl−) current in FRT cells expressing ΔF508-CFTR, Ussing chamber; assay type: cell-based; set-up: expressed in transfected cells; settings: for pEC50 / maximal current compared with genistein: after forskolin 20 μM; for pEC50: 27° C. 24 hours, read-out: potency for ΔF508-CFTR currents; for maximal current compared with genistein: genistein 50 μM; for potentiation of the response of ΔF508-CFTR to forskolin: low concentrations of forskolin, potentiator 100 nM
Procedure: Clonal populations of Fischer rat thyroid (FRT) epithelial cells stably co-expressing human ΔF508-CFTR and the high-sensitivity halide-sensing green fluorescent analog YFP-H148Q/I152L (Galietta et al., A.S. (2001) FEBS Lett. 499, 220-224) were generated by liposome transfection and limiting dilution with Zeocin/G418 selection. More than 100 clones were evaluated for high fluorescence and ΔF508-CFTR plasma membrane targeting after growth at 27° C. for 24 hours. For screening, cells were cultured on plastic in Coon's modified F12 medium supplemented with 10% fetal bovine serum, 2 mM L-glutamine, 100 U/ml penicillin, and 100 μg/ml streptomycin, and plated on black 96-well microplates (Corning-Costar 3904) at 30,000 cells/well. For short-circuit measurements cells were cultured on Snapwell permeable supports (Corning-Costar) at 500,000 cells/insert. Human nasal epithelium cells from CF patients were cultured on Snapwell inserts and allowed to differentiate in a hormone-supplemented medium (Galietta et al., Am. J. Physiol., […]). Some measurements were done using stably transfected FRT cells expressing YFP-H148Q and wildtype- or G551D-CFTR (Galietta et al., (2001) J. Biol. Chem. 276, 19723-19728). Patch clamp experiments were done on ΔF508-CFTR-expressing FRT cells plated in 35-mm Petri dishes.
Using chamber experiments were performed 7-9 days after plating ΔF508-CFTR expressing FRT cells on Snapwell inserts. The basolateral solution contained (in mM): 130 NaCl, 2.7 KCl, 1.5 KH2PO4, 1 CaCl2, 0.5 MgCl2, 10 glucose, 10 Na-Hepes (pH 7.3). In the apical bathing solution 65 mM NaCl was replaced by Na gluconate, and CaCl2 was increased to 2 mM. Solutions were bubbled with air and maintained at 37° C. The basolateral membrane was permeabilized with 250 μg/ml amphotericin B. The hemichambers were connected to a DVC-1000 voltage clamp (World Precision Instruments) via Ag/AgCl electrodes and 1 M KCl agar bridges for recording short-circuit current.
Experiments were done after basolateral membrane permeabilization and in the presence of a transepithelial Cl^− gradient, so that short-circuit current represents apical membrane Cl^− current. […] Cells were plated on a permeable support to generate a polarized epithelium, cultured for 5-7 days, and then incubated at 27° C. for 24 hours. Transepithelial chloride current was measured in a modified Ussing chamber in the presence of a chloride gradient.

ΔF508-CFTR [3] = target: T1, ΔF508-CFTR; assay: Short-circuit current in primary nasal epithelial cells from ΔF508 homozygous subject; assay type: cell-based; set-up: expressed in transfected cells; settings: 27° C. 20-24 hours, amiloride, forskolin 20 μM
Procedure: For short-circuit measurements cells were cultured on Snapwell permeable supports (Corning-Costar) at 500,000 cells/insert. […] Patch clamp experiments were done on ΔF508-CFTR-expressing FRT cells plated in 35-mm Petri dishes.
Human nasal epithelial cells from ΔF508 homozygote subjects were cultured as polarized monolayers on permeable supports for transepithelial short-circuit current measurement.

intracellular cAMP = assay: cAMP enzymatic immunoassay of FRT cell lysates; assay type: cell-based, rat; settings: compounds 2 μM, 10 minutes, forskolin 0.5 μM
Procedure: cAMP activity was measured using the BIOTRAK enzymatic immunoassay (Amersham) of FRT cell lysates after incubation with the compounds for 10 minutes in the presence of 0.5 μM forskolin.
An analysis of compound specificity was also performed.

T1 sequence (P13569 with tags, fused parts or gaps DEL508-508): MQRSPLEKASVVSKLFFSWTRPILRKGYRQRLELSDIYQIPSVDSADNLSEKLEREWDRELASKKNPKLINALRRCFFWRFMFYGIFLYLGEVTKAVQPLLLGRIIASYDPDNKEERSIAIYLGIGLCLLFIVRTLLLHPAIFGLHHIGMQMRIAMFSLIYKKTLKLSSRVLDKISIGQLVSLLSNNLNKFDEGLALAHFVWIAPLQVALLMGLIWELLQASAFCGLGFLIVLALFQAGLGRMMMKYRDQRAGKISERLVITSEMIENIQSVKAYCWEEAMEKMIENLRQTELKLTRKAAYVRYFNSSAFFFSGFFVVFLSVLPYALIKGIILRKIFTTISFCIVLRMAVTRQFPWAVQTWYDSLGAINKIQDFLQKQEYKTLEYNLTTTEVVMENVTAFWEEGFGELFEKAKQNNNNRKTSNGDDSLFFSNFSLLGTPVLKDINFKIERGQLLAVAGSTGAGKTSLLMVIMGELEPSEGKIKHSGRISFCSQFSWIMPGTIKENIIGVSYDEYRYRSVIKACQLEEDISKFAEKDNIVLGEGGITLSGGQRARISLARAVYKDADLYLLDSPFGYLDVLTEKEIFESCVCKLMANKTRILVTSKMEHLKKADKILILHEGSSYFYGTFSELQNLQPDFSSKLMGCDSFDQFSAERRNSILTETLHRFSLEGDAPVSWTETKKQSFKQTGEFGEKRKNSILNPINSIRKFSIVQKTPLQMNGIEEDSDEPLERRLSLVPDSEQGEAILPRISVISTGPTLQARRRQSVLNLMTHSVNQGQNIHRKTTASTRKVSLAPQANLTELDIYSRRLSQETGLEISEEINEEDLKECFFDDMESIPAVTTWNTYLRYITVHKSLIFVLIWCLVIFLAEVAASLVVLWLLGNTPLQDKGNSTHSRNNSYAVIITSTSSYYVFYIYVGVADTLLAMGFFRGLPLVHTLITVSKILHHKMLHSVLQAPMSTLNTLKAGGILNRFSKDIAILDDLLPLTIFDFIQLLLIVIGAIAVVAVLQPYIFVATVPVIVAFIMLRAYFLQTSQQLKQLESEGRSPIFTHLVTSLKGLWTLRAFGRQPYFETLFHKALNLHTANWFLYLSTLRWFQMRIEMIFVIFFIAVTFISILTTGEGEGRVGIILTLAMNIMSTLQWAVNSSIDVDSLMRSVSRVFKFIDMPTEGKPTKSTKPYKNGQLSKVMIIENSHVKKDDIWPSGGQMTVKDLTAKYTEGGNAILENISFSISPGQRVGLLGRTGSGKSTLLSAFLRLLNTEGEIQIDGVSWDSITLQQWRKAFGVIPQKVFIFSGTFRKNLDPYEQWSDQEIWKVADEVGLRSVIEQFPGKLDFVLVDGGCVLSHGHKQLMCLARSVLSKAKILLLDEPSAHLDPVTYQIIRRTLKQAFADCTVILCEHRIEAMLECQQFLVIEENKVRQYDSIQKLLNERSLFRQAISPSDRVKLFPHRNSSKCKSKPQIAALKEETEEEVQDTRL

Structure (SMILES) | ΔF508-CFTR channel activity (ΔF508-CFTR [1]) | pEC50 (ΔF508-CFTR [2]) | maximal current compared with genistein (ΔF508-CFTR [2]) | potentiation of the response of ΔF508-CFTR to forskolin (ΔF508-CFTR [2]) | activation of ΔF508-CFTR current (ΔF508-CFTR [3]) | cAMP level (intracellular cAMP)
CC(C)c1ccc(NC(=O)C(c2ccccc2)N(C)C(=O)Cc2c[nH]c3ccccc23)cc1 (stereo not drawn) [Compound P-1, 2-[(2-1H-Indol-3-yl-acetyl)-methyl-amino]-N-(4-isopropyl-phenyl)-2-phenyl-acetamide] | large increase in channel activity | > 7.00 | comparable to or greater than that produced by 50 μM genistein | significant increase in current induced by low concentrations of forskolin | significant activation | did not increase cAMP above the level induced by forskolin
C=CCNC(=O)c1c[nH]c2ccc(S(=O)(=O)N(C)c3ccccc3OCC)cc2c1=O [Compound S-1, 6-[(2-Ethoxy-phenyl)-methyl-sulfamoyl]-4-oxo-1,4-dihydro-quinoline-3-carboxylic acid allylamide] | large increase in channel activity | > 7.00 | comparable to or greater than that produced by 50 μM genistein | significant increase in current induced by low concentrations of forskolin | significant activation | did not increase cAMP above the level induced by forskolin
